# Like-named read-outs stand apart in the source and are kept apart here.
# Columns and labels:
# [1] = tested on: SH-SY5Y cells; assay: Mitochondrial membrane potential (rhodamine 123), KE2 assay; format: cell-based, human; conditions: for Ratios of EC25 KE4/KE2 MMP: NeuriTox neurite EC25 relative to SH-SY5Y MMP EC25
# Procedure: Cells were plated at a cell density of 29,500 cells/cm^2 and handled as described above for the neurite SH-SY5Y degeneration. On d6 of differentiation, 50% of the medium was replaced by differentiation medium containing 2 µM Rhodamine 123 (ThermoFisher). After 45 min of preloading at 37 °C with 5% CO2 in darkness, the Rhodamine 123 solution was completely removed and cells were carefully washed once with 200 µl DMEM:F12. Subsequently, 50 µl differentiation medium per well were added followed by the addition of 50 µl/well of test compounds in medium. After 24 h of exposure to the test compounds, the nuclei were stained for 30 min with 20 µL of a solution containing 20 µM Hoechst 33342, and the images were then acquired with a 10 × objective lens using the ImageXpress® Micro (Molecular Devices) high content microplate imager. Nuclei were evaluated in the DAPI channel (excitation 377 ± 50 nm, emission 447 ± 60 nm), whereas Rhodamine 123 fluorescence was detected in the FITC channel (excitation 475 ± 34 nm, emission 536 ± 40 nm). Analysis of the Hoechst 33,342 and Rhodamine 123 fluorescence was performed using the MetaXpress® Software (Molecular Devices) with the Transfluor HT plug-in and the parameters nuclei (for Hoechst-33342) and integrated granule intensity (for Rhodamine 123). Mitochondrial membrane potential (MMP) was quantified as the total fluorescence intensity of Rhodamine 123 in relation to the number of Hoechst-stained nuclei.
# [2] = tested on: proteasome; assay: Proteasomal activity (KE3 assay) in LUHMES cells; format: cell-based, human; conditions: NeuriTox neurite EC25 relative to proteasomal activity EC25, LUHMES
# Procedure: Activity of the proteasome was quantified as described in (Gutbier et al. [2018b]). Briefly, after exposure, culture medium was replaced by assay buffer containing a cell-permeable proteasomal substrate (MeOSuc-Gly-Leu-Phe-AMC, 25 µM (Bachem, Bubendorf, Switzerland) in HBSS). Its AMC-fluorescence (ex: 360 nm, em: 465 nm) increases with proteasomal activity and was monitored for 90 min. Background-corrected data were used for further analysis.
# [3] = tested on: HepG2 cells; assay: HepG2-based respirometry, total cell respiration (earlier study); conditions: NeuriTox neurite EC25 relative to cell respiration EC25; respirometric data from HepG2-based assays ref van der Stel et al. 2020
# [4] = tested on: LUHMES cells; format: cell-based, human; conditions: 24 h, vs 0.1% DMSO; for log2FoldChange AARS: gene AARS; for log2FoldChange AASDHPPT: gene AASDHPPT; for log2FoldChange AATF: gene AATF; for log2FoldChange ABCA1: gene ABCA1; for log2FoldChange ABCA6: gene ABCA6
# Procedure: Cells were cultured and treated as described above for the NeuriTox assay. On d3, after 24 h treatment, culture medium was replaced by 33 µl/well 1 × Biospyder lysis buffer. After 15 min at room temperature, plates were sealed and frozen at -80 °C to complete lysis. Samples were analyzed at Bioclavis (Glasgow) using the TempO-Seq technique and the EU-ToxRisk v2.0 gene probe panel covering ca. 3000 genes (Yeakley et al. [2017]). All genes are listed in the supplementary excel file (containing also all gene regulations). Briefly, a 50 bp fragment of the target gene was amplified. The amplification step also introduced sample-specific barcodes. This allowed pooling of all samples and standard next-generation sequencing of the ensemble. Afterward, adapters were used to allocate the sequenced fragments to the correct samples. Finally, the alignment of all sequenced fragments (FASTQ files) for each sample to the collection of reference 50 bp oligonucleotides was performed for the quantification of reads per gene, also known as the read count values. In a pre-filtering step, samples with a total count < 0.2 million and genes with an average count < 1.5 were removed.
# To correct for both read depth and RNA composition, the DESeq2′s median of ratios normalization was applied. The analysis of differentially expressed genes (DEG) of each treatment against the control group was done by the Wald test implemented in DESeq2/R (Love et al. [2014]), including an FDR correction for p-adjusted ≤ 0.05. […] A curve was fit through these concentration–response data to obtain EC10DEG. For comparability, all DEG data were normalized to a positive control. […] The EC10DEG was calculated using an established online open access BMC calculator (BMCeasy) (Krebs et al. [2020]).
# [5] = tested on: LUHMES cells; assay: NeuriTox test: neurite area and viability, 24 h; format: cell-based, human; conditions: for EC25: Homo sapiens
# Procedure: (§1) The NeuriTox test was performed as previously described (Delp et al. [2018b]; Krug et al. [2013a]; Stiegler et al. [2011]). Briefly, cells differentiated for 48 h were re-seeded into 96-well plates at a density of 100,000 cells/cm^2 in DM without cAMP and GDNF, and treated 1 h after seeding for 24 h. Subsequently, multiple endpoints were determined, e.g., neurite outgrowth (i.e., NeuriTox test), resazurin reduction, intracellular ATP content, gene expression levels from TempO-Seq analysis, and proteasomal activity. For the 120 h exposure scenario, LUHMES cells were differentiated for another 3 days after reseeding before they were treated on day 5 (d5) and d7 by a half medium exchange. Endpoints were determined on d10 of differentiation.
# Image acquisition and analysis was performed as described previously (Krug et al. [2013a]; Schildknecht et al. [2013]; Stiegler et al. [2011]). In brief, cells were live-stained with 1 µg/ml Hoechst H-33342 and 1 µM calcein-AM and image acquisition was done by an automated high content imager (Cellomics, Waltham, MA, USA). Cell viability was determined as ratio of live cells (cell bodies being Calcein- and Hoechst-positive) relative to the total amount of cells (Hoechst-positive cell bodies). Neurite area was calculated by subtracting the somatic area (Hoechst-positive area plus surrounding) from the calcein-positive area.
# [6] = tested on: MRC complex (cI, cII or cIII); assay: HepG2-based MRC complex assay in permeabilized cells (earlier study); format: cell-based; conditions: NeuriTox neurite EC25 relative to complex assay EC25 in permeabilized cells; respirometric data from HepG2-based assays ref van der Stel et al. 2020
# [7] = tested on: LUHMES cells; assay: Intracellular ATP content after NeuriTox exposure; format: cell-based; conditions: Homo sapiens; NeuriTox exposure scheme, 24 h; read-out: LUHMES 24 h EC25 ATP (converted)
# Procedure: as §1
# Plates from the NeuriTox test were further used after imaging for determination of alternative endpoints. Intracellular ATP was determined as described earlier (Delp et al. [2019]). In brief, CellTiterGlo 2.0 assay mix (Promega) containing luciferase was added after imaging, and luminescence was recorded. For the determination of resazurin reduction, a 10 × resazurin stock solution was added after imaging to the medium (final resazurin concentration 2 µg/ml) (Delp et al. [2018a]). After 60 min incubation, resazurin fluorescence was recorded (ex: 530 nm, em: 590 nm). Background-corrected data was used for further analysis.
# [8] = tested on: U2OS cells; assay: cells; format: cell-based; conditions: Homo sapiens; U2OS osteosarcoma cells, 24 h, luminescence of constitutively expressed luciferase; read-out: Cytotox EC25 U2OS (converted)
# Procedure: A cell suspension of 100,000 cells/ml was prepared in assay medium, and white 384-well plates were filled with 30 µl/well cell suspension. Twenty-four hours after seeding, a dilution series of test compound, as well as positive and negative controls, were added to the cells. After 24 h exposure, the medium was removed, and 10 µl of Triton X-100 lysis buffer was added to each well. The luminescent signal was determined in a luminometer by injecting BDS Illuminate Mix and measuring the light emission. The Cytotox CALUX cell line constitutively expresses a high level of luciferase protein; the light emission is therefore proportional to the cell number of live cells, and its decrease can be used as measure of cytotoxicity. The light emission generated by cells exposed to vehicle control was set to 100%, and the luminescence of cells exposed to the positive control toxicant tributyltin acetate [100 µM] was set to 0%. The light output of the cells exposed to different concentrations of test compounds was scaled accordingly.
# [9] = NeuriTox test, neurite outgrowth impairment, LUHMES 24 h
# [10] = NeuriTox exposure scheme, 24 h, read-out: LUHMES 24 h EC25 NA (neurite area) (converted)
# [11] = NeuriTox exposure scheme, 24 h, read-out: LUHMES 24 h EC25 V (viability) (converted)
Compound,Ratios of EC25 KE4/KE2 MMP [1],Ratios of EC25 KE4/KE1 total respiration [3],Ratios of EC25 KE4/KE1 complex assay [6],EC25 [7],"EC25 [5, 10]","EC25 [5, 11]",EC25 [8],further results
CO/C=C(/C(=O)OC)c1ccccc1Oc1cc(Oc2ccccc2C#N)ncn1 [Azoxystrobin],9.8,10.0,4.0,–,–,–,–,"Ratios of EC25 KE4/KE3 proteasomal [2]: 0.9; log2FoldChange AARS ([4]; 0.10 µM): -0.16 log2; log2FoldChange AASDHPPT ([4]; 0.10 µM): 0.0857 log2; log2FoldChange AATF ([4]; 0.10 µM): -0.0134 log2; log2FoldChange ABCA1 ([4]; 0.10 µM): -0.16 log2; log2FoldChange ABCA6 ([4]; 0.10 µM): -1.97 log2; EC25 KE4 (AO) Neurite toxicity [5, 9]: 4.5 -log[M]"
CSC1=N[C@@](C)(c2ccccc2)C(=O)N1Nc1ccccc1 [Fenamidone],–,≥ 10,–,> 50.1 µM,> 50.1 µM,> 50.1 µM,> 100 µM,–
CC(C)(C)c1ccc(CCOc2ncnc3ccccc23)cc1 [Fenazaquin],–,40–60,≥ 800,10 µM,10 µM,15.8 µM,> 100 µM,–
Cc1occc1C(=O)Nc1ccccc1 [Fenfuram],–,–,–,> 100 µM,> 100 µM,> 100 µM,> 100 µM,–
CC(C)Oc1cccc(NC(=O)c2ccccc2C(F)(F)F)c1 [Flutolanil],–,–,–,79.4 µM,79.4 µM,> 100 µM,> 100 µM,–
CO/N=C(/C(=O)OC)c1ccccc1COc1ccccc1C [Kresoxim-methyl],–,≥ 10,–,31.6 µM,50.1 µM,39.8 µM,> 100 µM,–
CO/C=C(/C(=O)OC)c1ccccc1COc1cccc(C(F)(F)F)n1 [Picoxystrobin],4.7,63,31.6,–,–,–,–,"log2FoldChange AARS ([4]; 0.10 µM): -0.76 log2; log2FoldChange AASDHPPT ([4]; 0.10 µM): 1.04 log2; log2FoldChange AATF ([4]; 0.10 µM): -0.34 log2; log2FoldChange ABCA1 ([4]; 0.10 µM): -0.73 log2; log2FoldChange ABCA6 ([4]; 0.10 µM): 1.05 log2; EC25 KE4 (AO) Neurite toxicity [5, 9]: 4.4 -log[M]"
CC(C)(C)c1ccc(CSc2cnn(C(C)(C)C)c(=O)c2Cl)cc1 [Pyridaben],–,40–60,≥ 800,79.4 µM,63.1 µM,> 100 µM,> 100 µM,–
CCc1nn(C)c(C(=O)NCc2ccc(C(C)(C)C)cc2)c1Cl [Tebufenpyrad],5.6,126,1000,12.6 µM,20 µM,20 µM,> 100 µM,"EC25 ([1]; Homo sapiens, SH-SY5Y differentiated 6 days, treated 24 h, rhodamine-123, read-out: pEC25 MMP (concentration where MMP was reduced by 25%) (converted)): 3.16 µM; log2FoldChange AARS ([4]; 0.09 µM): -0.0653 log2; log2FoldChange AASDHPPT ([4]; 0.09 µM): 0.0475 log2; log2FoldChange AATF ([4]; 0.09 µM): 0.19 log2; log2FoldChange ABCA1 ([4]; 0.09 µM): -0.37 log2; log2FoldChange ABCA6 ([4]; 0.09 µM): 0.84 log2; EC25 ([5]; NeuriTox test, neurite outgrowth impairment, LUHMES 24 h, read-out: EC25 KE4 (AO) Neurite toxicity (converted)): 20 µM"
CO/N=C(/C(=O)OC)c1ccccc1CO/N=C(\C)c1cccc(C(F)(F)F)c1 [Trifloxistrobin],–,≥ 10,–,–,–,–,–,–

# Source: paper PMC7870626, “Neurotoxicity and underlying cellular changes of 21 mitochondrial respiratory chain inhibitors” (Archives of Toxicology, 2021)
